The assay has as its system male ICR mice. Put plainly: Formalin paw test. Conditions: for Early Phase: early/acute phase (0-10 minutes) after formalin; for Late Phase: late/tonic phase (10-35 minutes) after formalin. It counts as in vivo, mouse. The protocol:
One test compound or the vehicle was administered to each mouse in each test group (8 mice per group). Non-fasted male ICR mice weighing 23±3 g were used. Test compounds were administered at a concentration of 3 mg/kg, 10 mg/kg, 15 mg/kg, 30 mg/kg, 60 mg/kg, 100 mg/kg, 200 mg/kg or 300 mg/kg; morphine was administered at a concentration of 5 mg/kg; and acetaminophen was administered at a concentration of 200 mg/kg. The control group received the vehicle (5% DMSO/40% PEG400/20% HPbCD/Saline). After 30 or 60 minutes, a 2% formalin solution (0.02 mL) was injected into one hind paw (sub-plantar) of each mouse. Responses were measured every 5 minutes after the formalin injection for 35 minutes.
The results in Table A are for oral administration; the results in Table B are for intraperitoneal administration. In Tables A and B, ‘A’ designates <70 licks/sec, ‘B’ designates ≥70 licks/sec and <165 licks/sec, and ‘C’ designates ≥165 licks/sec.

Where [1] appears, read: intraperitoneal administration, 30 mg/kg.

SMILES strings stand for the structures. Counter-ions that a name gives are not always drawn.

For `CC(=O)NCC12CC(C(C)(C)C)(C1)C2` [Compound 1, N-((3-(tert-butyl)bicyclo[1.1.1]pentan-1-yl)methyl)acetamide], where the note is “oral administration, 200 mg/kg”, the “Early Phase” value is on record as “A (‘A’ designates <70 licks/sec)” and the “Late Phase” value was “A (‘A’ designates <70 licks/sec)”.
In the case of `CC(C)(C)C12CC(CN)(C1)C2` [Compound 1c, (3-(tert-butyl)bicyclo[1.1.1]pentan-1-yl)methanamine], under setting [1], the “Early Phase” value is “B (‘B’ designates ≥70 licks/sec and <165 licks/sec)”; the “Late Phase” value is “B (‘B’ designates ≥70 licks/sec and <165 licks/sec)”.
For the compound `CC(=O)NCC12CC(C(F)(F)F)(C1)C2` [Compound 2], under “oral administration, 200 mg/kg”, the “Early Phase” value was “B (‘B’ designates ≥70 licks/sec and <165 licks/sec)”; the “Late Phase” value is “B (‘B’ designates ≥70 licks/sec and <165 licks/sec)”.
Consider `CC(=O)NC12CC(C(F)(F)F)(C1)C2` [Compound 4], for which, where the note is “oral administration, 200 mg/kg”, the “Early Phase” value was “A (‘A’ designates <70 licks/sec)” and the “Late Phase” value was “C (‘C’ designates ≥165 licks/sec)”.
For the compound `CC(=O)NC12CC(C)(C1)C2` [Compound 6], where the note is “oral administration, 200 mg/kg”, the “Early Phase” value was “B (‘B’ designates ≥70 licks/sec and <165 licks/sec)”; the “Late Phase” value is “B (‘B’ designates ≥70 licks/sec and <165 licks/sec)”.
With `CC(=O)NC12CC(C(C)C)(C1)C2` [Compound 8], for the setting “oral administration, 200 mg/kg”, the “Early Phase” value is recorded as “A (‘A’ designates <70 licks/sec)” and the “Late Phase” value is listed as “A (‘A’ designates <70 licks/sec)”.
Take `O=C(NC12CC(C1)C2)C(F)(F)F` [Compound 9]: for the setting “oral administration, 200 mg/kg”, the “Early Phase” value was “B (‘B’ designates ≥70 licks/sec and <165 licks/sec)”; the “Late Phase” value is recorded as “C (‘C’ designates ≥165 licks/sec)”.
In the case of `CC(C)(C)C(=O)NC12CC(C(C)(C)C)(C1)C2` [Compound 11], under “oral administration, 200 mg/kg”, the “Early Phase” value was “A (‘A’ designates <70 licks/sec)” and the “Late Phase” value is recorded as “A (‘A’ designates <70 licks/sec)”.
In the case of `CC(C)(C)C(=O)NC12CC(C1)C2` [Compound 12], where the note is “oral administration, 200 mg/kg”, the “Early Phase” value was “B (‘B’ designates ≥70 licks/sec and <165 licks/sec)”; the “Late Phase” value is “C (‘C’ designates ≥165 licks/sec)”.
Take `CC(=O)N(C)C12CC(C(C)(C)C)(C1)C2` [Compound 14]: where the note is “oral administration, 200 mg/kg”, the “Early Phase” value is given as “A (‘A’ designates <70 licks/sec)” and the “Late Phase” value is reported as “A (‘A’ designates <70 licks/sec)”.
As for `CC(=O)NC12CC(C(C)(C)O)(C1)C2` [Compound 18], under setting [1], the “Early Phase” value is “B (‘B’ designates ≥70 licks/sec and <165 licks/sec)”; the “Late Phase” value was “C (‘C’ designates ≥165 licks/sec)”.
`NCCC12CC(C(F)(F)F)(C1)C2` [Compound 21, 2-(3-(trifluoromethyl)bicyclo[1.1.1]pentan-1-yl)ethanamine, hydrochloride]: under setting [1], the “Early Phase” value is “B (‘B’ designates ≥70 licks/sec and <165 licks/sec)”; the “Late Phase” value is “B (‘B’ designates ≥70 licks/sec and <165 licks/sec)”.

Source of the values: US10975035B2, “Bicyclic compounds” (Recurium IP Holdings, LLC, priority 2014, dated 2021).
